The values that follow come from article PMC6208970, “Linking cytochrome P450 enzymes from Mycobacterium tuberculosis to their cognate ferredoxin partners” (Applied Microbiology and Biotechnology, 2018).

The Kd is the free concentration of one partner at which half of the binding sites on the other are occupied at equilibrium, for simple one-to-one binding.

One assay concerns the target T1, CYP125A1 (Mycobacterium tuberculosis, UniProt P9WPP1).
T1 construct: gene cyp125
Nature of the assay: reconstituted turnover, GC-MS detection of 27-hydroxycholesterol. The assay is classed as biochemical. The settings on record: 0.5 μM CYP, 50 μM cholesterol in methyl-β-cyclodextrin; FdrA or FprA with FdxD or FdxE; pH 7.4; 37 °C.

In the next assay the target is T2, CYP142A1 (Mycobacterium tuberculosis, UniProt P9WPL5).
T2 construct: gene cyp142
The assay is classed as biochemical.

The target in a further assay is T3, CYP124A1 (Mycobacterium tuberculosis, UniProt P9WPP3).
T3 construct: gene cyp124
Nature of the assay: reconstituted turnover, GC-MS detection of 27-hydroxycholesterol. The assay is classed as biochemical. As to conditions: 0.5 μM CYP, 50 μM cholesterol in methyl-β-cyclodextrin; FdrA or FprA with FdxD or FdxE; pH 7.4; 37 °C.

Assay [1] addresses CYP143A1 (Mycobacterium tuberculosis) (UniProt P9WPL2). The settings on record: cited from earlier work.

T2 sequence (P9WPL5 whole entry): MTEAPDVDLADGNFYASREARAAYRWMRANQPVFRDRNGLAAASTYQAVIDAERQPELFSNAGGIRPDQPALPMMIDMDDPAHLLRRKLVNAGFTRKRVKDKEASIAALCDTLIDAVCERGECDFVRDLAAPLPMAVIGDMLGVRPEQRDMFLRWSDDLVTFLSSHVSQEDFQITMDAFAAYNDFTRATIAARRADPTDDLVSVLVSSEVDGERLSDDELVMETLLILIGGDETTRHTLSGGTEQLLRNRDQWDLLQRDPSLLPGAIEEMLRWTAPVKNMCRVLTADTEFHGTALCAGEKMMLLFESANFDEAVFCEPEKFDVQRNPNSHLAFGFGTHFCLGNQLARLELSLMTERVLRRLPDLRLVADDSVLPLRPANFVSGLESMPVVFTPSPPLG
Chain of ferredoxin Rv1786 (O53937 whole entry): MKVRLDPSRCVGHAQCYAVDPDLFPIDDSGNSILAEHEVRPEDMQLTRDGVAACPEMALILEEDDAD
Chain of CYP143A1 (Mycobacterium tuberculosis) (P9WPL2 whole entry): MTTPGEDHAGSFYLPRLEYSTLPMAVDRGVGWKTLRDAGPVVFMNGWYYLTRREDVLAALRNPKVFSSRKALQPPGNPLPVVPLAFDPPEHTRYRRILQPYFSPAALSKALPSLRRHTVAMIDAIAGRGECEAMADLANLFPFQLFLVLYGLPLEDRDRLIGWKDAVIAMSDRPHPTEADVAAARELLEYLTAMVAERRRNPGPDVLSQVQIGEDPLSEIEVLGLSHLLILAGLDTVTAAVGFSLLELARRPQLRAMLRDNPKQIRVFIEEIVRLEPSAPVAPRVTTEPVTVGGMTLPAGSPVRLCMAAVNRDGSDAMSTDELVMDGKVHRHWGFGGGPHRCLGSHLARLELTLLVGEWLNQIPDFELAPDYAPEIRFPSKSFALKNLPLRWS
T3 sequence (P9WPP3 whole entry): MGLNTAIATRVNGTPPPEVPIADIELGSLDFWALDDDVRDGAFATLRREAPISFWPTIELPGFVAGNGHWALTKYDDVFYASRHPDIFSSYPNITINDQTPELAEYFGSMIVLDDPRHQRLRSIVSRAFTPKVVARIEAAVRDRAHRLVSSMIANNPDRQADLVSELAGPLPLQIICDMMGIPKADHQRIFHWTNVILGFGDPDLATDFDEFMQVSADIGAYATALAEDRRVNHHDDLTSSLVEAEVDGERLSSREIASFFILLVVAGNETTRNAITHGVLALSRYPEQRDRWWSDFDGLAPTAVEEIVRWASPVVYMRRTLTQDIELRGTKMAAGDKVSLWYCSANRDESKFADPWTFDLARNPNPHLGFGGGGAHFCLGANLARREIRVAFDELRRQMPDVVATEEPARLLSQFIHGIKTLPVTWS
T1 sequence (P9WPP1 whole entry): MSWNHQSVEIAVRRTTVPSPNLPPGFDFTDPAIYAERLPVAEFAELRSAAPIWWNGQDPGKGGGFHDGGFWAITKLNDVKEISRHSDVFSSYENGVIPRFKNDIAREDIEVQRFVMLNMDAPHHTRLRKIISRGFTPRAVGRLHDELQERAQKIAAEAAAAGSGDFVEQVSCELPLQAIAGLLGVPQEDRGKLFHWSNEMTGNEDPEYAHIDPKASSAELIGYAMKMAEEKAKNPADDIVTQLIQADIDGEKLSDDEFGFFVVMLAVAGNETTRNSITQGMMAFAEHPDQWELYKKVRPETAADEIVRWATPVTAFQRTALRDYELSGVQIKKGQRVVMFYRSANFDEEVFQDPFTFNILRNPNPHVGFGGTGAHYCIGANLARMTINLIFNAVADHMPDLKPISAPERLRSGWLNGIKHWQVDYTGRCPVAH

Take `CC(C)CCC[C@@H](C)[C@H]1CC[C@H]2[C@@H]3CC=C4C[C@@H](O)CC[C@]4(C)[C@H]3CC[C@]12C` [cholesterol]: the “reconstituted turnover, GC-MS detection of 27-hydroxycholesterol” value at CYP125A1 is “only FdxD and FdxE were able to support cholesterol conversion”; on CYP142A1, “CYP142A1 was found to be the most efficient in cholesterol conversion”; at CYP124A1, “only FdxD and FdxE were able to support cholesterol conversion”.

In the case of ferredoxin Rv1786 (from UniProt O53937), the Kd in assay [1] is 0.337 µM.
